Literature values as cited in patent US7756644B2, “System and method for automated selection of T-cell epitopes” (priority 2005, dated 2010).

System: memory T-cells isolated from HLA-B7-positive EBV-seropositive individuals
Conditions: PNAS 1999

Sequence | recognition by memory T-cells / immunogenicity
QPRAPIRPI (EBNA 3C.881 peptide from Epstein-Barr virus) | is not
RPPIFIRRL [EBNA 3A.379] | recognized
